Results reported in US20080009487A1, “Treatment of athersclerotic disease” (priority 2006, published 2008).
“Also recorded” adds a separate entry of the source.

How the values were obtained:
C. pneumoniae [1] = assay: Potency against C. pneumoniae relative to roxithromycin; format: cell-based; details: fold more potent than roxithromycin
Text: (§1) Both preclinical and clinical lines of evidence support the use of rifalazil in the methods of the invention. […] In addition, based on overall safety data in animals and man, we believe that a dose of rifalazil can safely be administered, tolerated, and will likely result in clinical benefit through its anti-Chlamydia action in these patients.

C. pneumoniae [2] = assay: Rabbit model of atherosclerosis accelerated by C. pneumoniae infection, high cholesterol diet; format: in vivo; details: C. pneumoniae-infected rabbits; for infectious burden of Chlamydia in the vasculature (in words): versus placebo
Method: Thirty received three separate C. pneumoniae inoculations performed at 3-week intervals. Similarly, 15 control rabbits were intranasally inoculated with 1 mL of normal saline under the same conditions. [table] Nineteen weeks after beginning antibiotic treatment, the rabbits were euthanized. After euthanasia, hearts were examined histologically and by immunofluorescence. Animal serum samples were also examined for seropositivity to the infecting organism. […] In the current study, the time after infection and treatment with either azithromycin or rifalazil was increased by seven weeks, a more rigorous test for the durability of treatment. Consistent with previously published work, C. pneumoniae-infected rabbits accumulated more plaque than non-infected rabbits (p=0.08).

Chlamydia = assay: Phase 2 study in men with non-gonococcal urethritis; format: in vivo; details: single oral dose
Text: as §1

[3] = format: physicochemical
Method: Rifalazil is a highly lipophilic molecule having limited solubility in water at physiological pH (approximately 200 ng/mL). Evidence of the highly lipophilic behavior of the molecule is illustrated in the partition coefficient (n-octanol:water) of between 70, 569 and over 900,000 in different experiments (Log P range; 4.9-5.9).

[4] = Degradation to 25-desacetyl derivative under acidic and basic conditions; format: physicochemical
Text: Rifalazil degrades to a 25-desacetyl derivative under both acidic and basic conditions. Typical of ester hydrolysis, the degradation in highly alkaline solutions is rapid while at an acidic pH, e.g., pH 1, the degradation at room temperature is slower, approximately 6% in one hour.

C. pneumoniae [5] = details: C. pneumoniae-infected rabbits, previously published study; cited from earlier work

partition coefficient (n-octanol:water) [3]	degradation to 25-desacetyl derivative ([4]; acidic pH 1, room temperature, in one hour)	degradation (ester hydrolysis) ([4]; highly alkaline solutions)	SMILES	potency against C. pneumoniae relative to roxithromycin (C. pneumoniae [1]) [times]	plaque area stenosis compared with placebo-treated animals (in words) (C. pneumoniae [2])	infectious burden of Chlamydia in the vasculature (in words) (C. pneumoniae [2])	patients in whom Chlamydia was eradicated (Chlamydia) [%]	prevention of Chlamydia-induced plaque formation (in words) (C. pneumoniae [5])
70, 569-900,000	approximately 6%	rapid	CO[C@H]1/C=C/O[C@@]2(C)Oc3c(C)c(O)c4c(=O)c(c5oc6cc(N7CCN(CC(C)C)CC7)cc(O)c6nc-5c4c3C2=O)NC(=O)/C(C)=C\C=C\[C@H](C)[C@H](O)[C@@H](C)[C@@H](O)[C@@H](C)[C@H](OC(C)=O)[C@@H]1C [rifalazil, 3′-hydroxy-5′-(4-isobutyl-1-piperazinyl)benzoxazinorifamycin]	2000	reduced C. pneumoniae burden and plaque area stenosis; also recorded: showed a trend in producing significantly reduced plaque area stenosis	reduced C. pneumoniae burden; also recorded: reduced the infectious burden of Chlamydia in the vasculature	> 86	
			CC[C@H]1OC(=O)[C@H](C)[C@@H](O[C@H]2C[C@@](C)(OC)[C@@H](O)[C@H](C)O2)[C@H](C)[C@@H](O[C@@H]2O[C@H](C)C[C@H](N(C)C)[C@H]2O)[C@](C)(O)C[C@@H](C)CN(C)[C@H](C)[C@@H](O)[C@]1(C)O [azithromycin, reference compound]			reduced the infectious burden of Chlamydia in the vasculature		significant effect in preventing Chlamydia-induced plaque formation
